Experimental data: US20110184027A1, “TISSUE SELECTIVE STEAROYL-COA DESATURASE 1 INHIBITORS AND CELL BASED SCREENING ASSAY FOR THEIR IDENTIFICATION” (GLENMARK PHARMACEUTICALS S.A., priority 2008, published 2011)

Legend:
SCD-1 [1] = molecular target: T1, SCD-1 (Homo sapiens, UniProt O00767); assay: Whole cell based SCD-1 assay in human skin cell line A431 (tritiated stearoyl CoA, labelled water release); parameters: includes cells which express the SCD-1 gene product endogenously; endogenous in cells; host or cells: A431 (ATCC CRL 1555), not induced; details: for IC35: EC35; for Fold Skin:liver: ratio of EC35 skin cells (A431) to EC35 liver cells (HepG2)
T1 sequence (O00767 1-359): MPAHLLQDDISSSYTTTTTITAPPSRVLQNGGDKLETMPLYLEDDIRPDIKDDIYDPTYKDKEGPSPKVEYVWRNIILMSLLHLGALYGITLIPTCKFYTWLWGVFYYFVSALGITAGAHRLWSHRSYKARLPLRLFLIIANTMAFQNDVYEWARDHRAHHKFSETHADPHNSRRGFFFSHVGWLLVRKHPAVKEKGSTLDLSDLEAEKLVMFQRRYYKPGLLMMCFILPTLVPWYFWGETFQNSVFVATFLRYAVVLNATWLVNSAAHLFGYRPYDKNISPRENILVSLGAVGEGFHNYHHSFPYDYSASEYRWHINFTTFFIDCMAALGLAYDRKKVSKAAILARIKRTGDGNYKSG
Protocol: (§1) An assay was developed using whole cells to screen for agents that modulate SCD-1 activity. Three cell lines namely human liver cell line (hepatocellular carcinoma HepG2 ATCC HB 8065), human skin cell line (epidermal carcinoma A431 ATCC CRL 1555) and human corneal epithelial progenitor (HCEP) cells (CELLNTEC advanced cell systems) were used. HepG2 cells were seeded in a 24 well plate in complete MEM medium (Hyclone). A431 cells were seeded in a 12 well plate in complete DMEM medium (Sigma). HCEP cells were seeded in a 96 well plate in defined corneal epithelial medium CnT 20 (CELLNTEC advanced cell systems). HepG2 cells were induced with LXR agonist T0901317 (Cayman chemicals) in medium containing high glucose and fatty acid free BSA for 3 days with media change every day (Wang et al, (2004) Journal of Lipid Research, 45, 972-980). A431 cells were not induced. (3). The cells were preincubated in plain medium with the known SCD-1 modulators namely CLA (conjugated linoleic acid) (Sigma) and TSA (9 thiastearic acid) (Cayman chemicals) for 15-30 minutes at 37 deg C. and further challenged with 0.25 to 7.5 μCi tritiated Stearoyl CoA (American Radiolabelled chemicals). The cells were incubated for last 6 hours in 5% CO2 incubator at 37 deg C. or in specific embodiments for 4 hours to 30 hours. At the end of the incubation, the incubation medium was collected into tubes. Dowex AG 1-X8 resin (Biorad laboratories) pre-equilibrated with distilled ethanol:water was added to the tubes to separate the unconsumed substrate from the labelled water. The tubes were then vortexed for 5 minutes and centrifuged at 14000 rpm for 20 minutes at room temperature. The supernatant from the tubes was mixed with the scintillation fluid and radioactivity counted in the Packard topcount scintillation counter (Perkin Elmer). Counts obtained were normalised per million cells. Inhibition of enzyme activity was calculated as the percent of maximum reaction control that contained no test compound.
(§2) The whole cell based assay was adapted to screen for agents that differentially modulate SCD-1 activity present in different tissues. Three cell lines namely human liver cell line (hepatocellular carcinoma HepG2), human skin cell line (epidermal carcinoma A431) and human corneal epithelial progenitor (HCEP) cells were used. HepG2 cells were seeded in a 24 well plate in complete MEM medium. A431 cells were seeded in a 12 well plate in complete DMEM medium. HCEP cells were seeded in a 96 well plate in defined corneal epithelial medium CnT 20. HepG2 cells were induced with LXR agonist T0901317 in medium containing 4.5 gm/litre glucose and 0.1% fatty acid free BSA for 3 days with media change every day (Wang et al, (2004) Journal of Lipid Research, 45, 972-980). A431 cells and HCEP cells were not induced. (3). The cells were preincubated in plain medium 0.1 nM to 10 μM concentrations potential SCD-1 modulator compounds for 15-30 minutes at 37 deg C. and further challenged with 0.25 to 7.5 μCi tritiated Stearoyl CoA. The cells were incubated for last 6 hours in 5% CO2 incubator at 37 deg C. or in specific embodiments for 4 hours to 30 hours. At the end of the incubation, the incubation medium was collected into tubes. Dowex AG 1-X8 resin pre-equilibrated with distilled ethanol:water was added to the tubes to separate the unconsumed substrate from the labelled water. The tubes were then vortexed for 5 minutes and centrifuged at 14000 rpm for 20 minutes at room temperature. The supernatant from the tubes was mixed with the scintillation fluid and radioactivity counted in the Packard topcount scintillation counter. Counts obtained were normalised per million cells. Inhibition of enzyme activity was calculated as the percent of maximum reaction control that contained no test compound. For active compounds, EC35 was calculated from dose response curve by non linear regression analysis using GraphPadPRISM software. The ratio of EC35 for skin cells to EC35 for liver cells was calculated. […]

SCD-1 [2] = molecular target: T1, SCD-1; assay: Whole cell based SCD-1 assay in human liver cell line HepG2 (tritiated stearoyl CoA, labelled water release); parameters: includes cells which express the SCD-1 gene product endogenously; endogenous in cells; host or cells: A431 (ATCC CRL 1555), not induced; details: for Fold Liver:skin: ratio of EC35 liver cells (HepG2) to EC35 skin cells (A431)
SCD-1 [3] = molecular target: T1, SCD-1; assay: Whole cell based SCD-1 assay in human skin cell line A431 (tritiated stearoyl CoA, labelled water release); parameters: includes cells which express the SCD-1 gene product endogenously; endogenous in cells; host or cells: A431 (ATCC CRL 1555), not induced
SCD-1 [4] = molecular target: T1, SCD-1; assay: Whole cell based SCD-1 assay in human liver cell line HepG2 (tritiated stearoyl CoA, labelled water release); parameters: includes cells which express the SCD-1 gene product endogenously; endogenous in cells; host or cells: A431 (ATCC CRL 1555), not induced; details: EC35
Protocol: as §1, §2

SCD-1 [5] = molecular target: T1, SCD-1; assay: Whole cell based SCD-1 assay in human corneal epithelial progenitor (HCEP) cells; parameters: includes cells which express the SCD-1 gene product endogenously; endogenous in cells; details: for IC35: HCEP human corneal epithelial cells, EC35, read-out: hCornea EC35; for Fold Liver:Cornea: ratio of EC35 liver cells (HepG2) to EC35 corneal cells (HCEP)
Protocol: as §1
The whole cell based assay was adapted to screen for agents that differentially modulate SCD-1 activity present in different tissues. Three cell lines namely human liver cell line (hepatocellular carcinoma HepG2), human skin cell line (epidermal carcinoma A431) and human corneal epithelial progenitor (HCEP) cells were used. HepG2 cells were seeded in a 24 well plate in complete MEM medium. A431 cells were seeded in a 12 well plate in complete DMEM medium. HCEP cells were seeded in a 96 well plate in defined corneal epithelial medium CnT 20. HepG2 cells were induced with LXR agonist T0901317 in medium containing 4.5 gm/litre glucose and 0.1% fatty acid free BSA for 3 days with media change every day (Wang et al, (2004) Journal of Lipid Research, 45, 972-980). A431 cells and HCEP cells were not induced. (3). […] The cells were incubated for last 6 hours in 5% CO2 incubator at 37 deg C. or in specific embodiments for 4 hours to 30 hours. At the end of the incubation, the incubation medium was collected into tubes. […] The supernatant from the tubes was mixed with the scintillation fluid and radioactivity counted in the Packard topcount scintillation counter. […] Inhibition of enzyme activity was calculated as the percent of maximum reaction control that contained no test compound. For active compounds, EC35 was calculated from dose response curve by non linear regression analysis using GraphPadPRISM software. The ratio of EC35 for skin cells to EC35 for liver cells was calculated.

[6] = HepG2 liver cells, LXR agonist induced, read-out: Inhibition of SCD-1 activity in whole cell based assay (EC35), HepG2
[7] = A-431, A431 human skin cells, read-out: hSkin EC35
[8] = HepG2 human liver cells, read-out: hLiver EC35

Molecule | IC35 (SCD-1 [1]; [7]) | IC35 (SCD-1 [4]; [8]) | Fold Skin:liver (SCD-1 [1]) | further results
CCCCCCCCCSCCCCCCCC(=O)O [TSA, 9 thiastearic acid, reference compound] |  |  |  | IC35 (SCD-1 [1]; A-431, A431 skin cells, not induced, read-out: Inhibition of SCD-1 activity in whole cell based assay (EC35), A431): ~100000 nM; inhibition at 100 µM (SCD-1 [2]; HepG2, HepG2 liver cells, at 100 μM, read-out: Percentage inhibition of SCD-1, HepG2): 58%; inhibition at 100 µM (SCD-1 [3]; A-431, A431 skin cells, at 100 μM, read-out: Percentage inhibition of SCD-1, A431): 52%; IC35 (SCD-1 [4]; [6]): ~100000 nM
Cc1nc(-c2ccc(-c3ccc(O)cc3)nc2)sc1C(=O)NCCCc1ccccc1 [compound 1] | 180 nM | 266 nM |  | Fold Liver:skin (SCD-1 [2]): 1.47
Cc1nc(C#Cc2ccc(O)cc2)sc1C(=O)NCc1ccccc1 [compound 1] |  | 363 nM |  | IC35 (SCD-1 [5]): 218 nM; Fold Liver:Cornea (SCD-1 [5]): 1.66
Cc1nc(C#Cc2ccc(O)cc2)sc1C(=O)NCc1cccnc1 [compound 1] | 2140 nM | 2300 nM | 0.93 | 
Cc1nc(C#Cc2cccc(O)c2)sc1C(=O)NCc1ccccc1 [compound 1] | 6900 nM | 3440 nM | 2.00 | 
Cc1nc(-c2ccc(-c3ccc(O)cc3)nc2)sc1C(=O)NCCc1ccccc1 [compound 2] | 168 nM | 438 nM |  | Fold Liver:skin (SCD-1 [2]): 2.60
Cc1nc(-n2cnn(Cc3ccc(F)cc3)c2=O)sc1C(=O)NCc1ccccc1 [compound 2] | 37.8 nM | 39.5 nM | 0.95 | 
Cc1nc(C#Cc2ccc(O)cc2)sc1C(=O)NCCc1ccc(F)cc1 [compound 2] |  | 480 nM |  | IC35 (SCD-1 [5]): 53.2 nM; Fold Liver:Cornea (SCD-1 [5]): 9.02
Cc1nc(C#Cc2ccc(O)cc2)sc1C(=O)NCCc1ccccc1 [compound 2] | 982 nM | 490 nM | 2.00 | 
Cc1nc(-n2cnn(Cc3cccc(F)c3F)c2=O)sc1C(=O)NCc1ccccc1 [compound 3] | 33.8 nM | 29.4 nM | 1.15 | 
Cc1nc(C#Cc2ccc(O)cc2)sc1C(=O)NCc1ccc(Cl)cc1 [compound 3] | > 10000 nM | 698 nM | >15 | 
conjugated linoleic acid [CLA, reference compound] |  |  |  | IC35 (SCD-1 [1]; A431 skin cells, not induced, read-out: Inhibition of SCD-1 activity in whole cell based assay (EC35), A431): 16350 nM; Percentage inhibition of SCD-1, HepG2 (SCD-1 [2]; HepG2 cells, at 300 μM): (~80.01% at 300 μM); Percentage inhibition of SCD-1, A431 (SCD-1 [3]; A431 cells, at 300 μM): (~91% at 300 μM); IC35 (SCD-1 [4]; [6]): 22660 nM; Percentage inhibition of SCD-1, HCEP (SCD-1 [5]; HCEP corneal cells, at 300 μM): ~80% at 300 μM
